Test results published in patent US20230331803A1, “CO-AGONISTS OF THE GLP-1 AND AMYLIN RECEPTORS” (priority 2020, published 2023).

Tests used:
[1] = target: T1, human GLP-1 receptor (Homo sapiens, UniProt P43220); test: Human GLP-1 receptor in vitro potency assay (CRE-luciferase reporter, BHK cells); type: cell-based; conditions: Table 4a; BHK cells expressing human GLP-1R, CRE-Luc, 3 hours; read-out: Human GLP-1R potency [EC50 (pM)]
T1 construct: expressed in transfected cells; host or cells: BHK (Baby Hamster Kidney) cells, clone BHK 467-12A KZ-10, stably transfected, with CRE-luciferase reporter
Experimental: It is thus possible to measure GLP-1 receptor activity using a CRE-luciferase reporter gene introduced into Baby Hamster Kidney (BHK) cells co-expressing the GLP-1 receptor.
Cells were aliquoted and stored at -180° C. until use.
Plates were sealed and incubated at room temperature with gentle shaking for 30 minutes while protected from light. Luminescence was detected on a luminescence plate reader e.g. a Synergy 2 (BioTek).

[2] = target: T2, human amylin receptor (hAmyR3) (Homo sapiens, UniProt O60896+P30988); test: Human amylin receptor in vitro potency assay (CRE-luciferase reporter, BHK cells); type: cell-based; conditions: Table 4a; BHK hAmyR3/CRE-Luc cells, 3 hours; read-out: Human AmyR3 potency [EC50 (pM)];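 also: BHK cells expressing human calcitonin receptor plus RAMP3 (amylin-3 receptor) with a CRE-luciferase reporter, agonist activity read as luminescence from cAMP-driven transcription, 7-point serial dilutions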
T2 construct: host or cells: BHK cells (Hollex-1 line: human calcitonin receptor (a) + CRE-Luc), further transfected with human RAMP3
T2 sequence (P30988 25-474): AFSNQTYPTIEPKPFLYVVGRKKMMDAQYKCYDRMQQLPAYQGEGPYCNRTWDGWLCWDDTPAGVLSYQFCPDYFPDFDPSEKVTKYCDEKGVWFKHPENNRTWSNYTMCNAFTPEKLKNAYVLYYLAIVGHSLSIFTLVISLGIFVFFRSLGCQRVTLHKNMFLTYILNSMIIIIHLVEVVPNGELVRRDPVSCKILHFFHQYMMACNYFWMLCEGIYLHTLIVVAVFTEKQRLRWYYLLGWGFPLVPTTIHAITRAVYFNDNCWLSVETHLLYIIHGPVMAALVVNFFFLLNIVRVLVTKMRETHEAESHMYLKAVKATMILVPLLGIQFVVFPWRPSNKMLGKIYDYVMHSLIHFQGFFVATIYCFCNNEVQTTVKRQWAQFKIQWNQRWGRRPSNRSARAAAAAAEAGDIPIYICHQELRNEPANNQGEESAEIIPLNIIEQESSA
T2 sequence (O60896 24-148): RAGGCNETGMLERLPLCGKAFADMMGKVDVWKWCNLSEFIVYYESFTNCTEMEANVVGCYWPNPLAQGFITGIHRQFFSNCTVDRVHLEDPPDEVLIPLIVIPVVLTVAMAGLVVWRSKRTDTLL

T1 sequence (P43220 24-463): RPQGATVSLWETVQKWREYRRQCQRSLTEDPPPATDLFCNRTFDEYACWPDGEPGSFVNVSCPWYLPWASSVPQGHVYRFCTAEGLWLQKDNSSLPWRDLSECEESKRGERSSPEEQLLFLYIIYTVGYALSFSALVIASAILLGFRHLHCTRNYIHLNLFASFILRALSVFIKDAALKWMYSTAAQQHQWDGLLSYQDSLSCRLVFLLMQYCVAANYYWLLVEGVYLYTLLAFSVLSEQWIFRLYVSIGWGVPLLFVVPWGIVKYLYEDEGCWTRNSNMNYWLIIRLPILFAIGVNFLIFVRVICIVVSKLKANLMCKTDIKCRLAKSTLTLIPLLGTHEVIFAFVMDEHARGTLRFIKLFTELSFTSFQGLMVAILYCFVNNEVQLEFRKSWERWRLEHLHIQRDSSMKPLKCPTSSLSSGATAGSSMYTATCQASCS

Row | Structure (SMILES) | EC50 [1] [pM] | EC50 [2] [pM]
1 | CC[C@H](C)[C@H](NC(=O)[C@H](Cc1ccccc1)NC(=O)[C@H](CCC(=O)O)NC(=O)[C@H](CCCCNC(=O)COCCOCCNC(=O)COCCOCCNC(=O)CC[C@H](NC(=O)CCCCCCCCCCCCCCC(=O)O)C(=O)O)NC(=O)[C@H](C)NC(=O)[C@H](C)NC(=O)[C@H](CCC(N)=O)NC(=O)CNC(=O)[C@H](CCC(=O)O)NC(=O)[C@H](CC(C)C)NC(=O)[C@H](Cc1ccc(O)cc1)NC(=O)[C@H](CO)NC(=O)[C@H](CO)NC(=O)[C@@H](NC(=O)[C@H](CC(=O)O)NC(=O)[C@H](CO)NC(=O)[C@@H](NC(=O)[C@H](Cc1ccccc1)NC(=O)[C@@H](NC(=O)CNC(=O)[C@H](CCC(=O)O)NC(=O)C(C)(C)NC(=O)[C@@H](N)Cc1c[nH]cn1)[C@@H](C)O)[C@@H](C)O)C(C)C)C(=O)N[C@@H](C)C(=O)N[C@@H](Cc1c[nH]c2ccccc12)C(=O)N[C@@H](CC(C)C)C(=O)N[C@H](C(=O)N[C@@H](CCCNC(=N)N)C(=O)NCC(=O)N[C@@H](CCCCNC(=O)COCCOCCNC(=O)COCCOCCNC(=O)CC[C@H](NC(=O)CCCCCCCCCCCCCCC(=O)O)C(=O)O)C(=O)NCC(=O)NCC(=O)NCC(=O)N[C@@H](CCC(=O)O)C(=O)N[C@@H](C)C(=O)N[C@@H](CO)C(=O)N[C@@H](CCC(=O)O)C(=O)N[C@@H](CC(C)C)C(=O)N[C@@H](CO)C(=O)N[C@H](C(=O)N[C@@H](C)C(=O)N[C@@H](C)C(=O)N[C@@H](CC(C)C)C(=O)NCC(=O)N[C@@H](CCCNC(=N)N)C(=O)N[C@@H](CC(C)C)C(=O)N[C@@H](CO)C(=O)N[C@@H](C)C(=O)N[C@@H](CCC(=O)O)C(=O)N[C@@H](CC(C)C)C(=O)N[C@@H](Cc1c[nH]cn1)C(=O)N[C@@H](CCC(=O)O)C(=O)N[C@@H](CC(C)C)C(=O)N[C@@H](C)C(=O)N[C@H](C(=O)N[C@@H](CC(C)C)C(=O)N1CCC[C@H]1C(=O)N[C@@H](CCCNC(=N)N)C(=O)N[C@H](C(=O)N[C@@H](CCC(=O)O)C(=O)N[C@H](C(=O)NCC(=O)N[C@@H](CO)C(=O)NCC(=O)N[C@@H](CO)C(=O)N1CCC[C@H]1C(N)=O)[C@@H](C)O)[C@@H](C)O)[C@@H](C)O)[C@@H](C)O)C(C)C [Compound 0075] | 84.5 | 43.9
2 | CC[C@H](C)[C@H](NC(=O)[C@H](Cc1ccccc1)NC(=O)[C@H](CCCCNC(=O)COCCOCCNC(=O)COCCOCCNC(=O)CC[C@H](NC(=O)CCCCCCCCCCCCCCC(=O)O)C(=O)O)NC(=O)[C@H](CCCNC(=N)N)NC(=O)[C@H](C)NC(=O)[C@H](C)NC(=O)[C@H](CCC(N)=O)NC(=O)[C@H](CCC(=O)O)NC(=O)[C@H](CCC(=O)O)NC(=O)[C@H](CC(C)C)NC(=O)[C@H](Cc1ccc(O)cc1)NC(=O)[C@H](CO)NC(=O)[C@H](CO)NC(=O)[C@@H](NC(=O)[C@H](CC(=O)O)NC(=O)[C@H](CO)NC(=O)[C@@H](NC(=O)[C@H](Cc1ccccc1)NC(=O)[C@@H](NC(=O)CNC(=O)[C@H](CCC(=O)O)NC(=O)C(C)(C)NC(=O)[C@@H](N)Cc1c[nH]cn1)[C@@H](C)O)[C@@H](C)O)C(C)C)C(=O)N[C@@H](CCC(=O)O)C(=O)N[C@@H](Cc1c[nH]c2ccccc12)C(=O)N[C@@H](CC(C)C)C(=O)N[C@H](C(=O)N[C@@H](CCCNC(=N)N)C(=O)NCC(=O)N[C@@H](CCCCNC(=O)COCCOCCNC(=O)COCCOCCNC(=O)CC[C@H](NC(=O)CCCCCCCCCCCCCCC(=O)O)C(=O)O)C(=O)NCC(=O)N[C@@H](CCC(=O)O)C(=O)NCC(=O)N[C@@H](CCC(N)=O)C(=O)N[C@@H](CCC(=O)O)C(=O)N1CCC[C@H]1C(=O)NCC(=O)NCC(=O)N[C@@H](C)C(=O)N[C@@H](CO)C(=O)N[C@@H](CCC(=O)O)C(=O)N[C@@H](CC(C)C)C(=O)N[C@@H](CO)C(=O)N[C@H](C(=O)N[C@@H](C)C(=O)N[C@@H](C)C(=O)N[C@@H](CC(C)C)C(=O)NCC(=O)N[C@@H](CCCNC(=N)N)C(=O)N[C@@H](CC(C)C)C(=O)N[C@@H](CO)C(=O)N[C@@H](C)C(=O)N[C@@H](CCC(=O)O)C(=O)N[C@@H](CC(C)C)C(=O)N[C@@H](Cc1c[nH]cn1)C(=O)N[C@@H](CCC(=O)O)C(=O)N[C@@H](CC(C)C)C(=O)N[C@@H](C)C(=O)N[C@H](C(=O)N[C@@H](CC(C)C)C(=O)N1CCC[C@H]1C(=O)N[C@@H](CCCNC(=N)N)C(=O)N[C@H](C(=O)N[C@@H](CCC(=O)O)C(=O)N[C@H](C(=O)NCC(=O)N[C@@H](CO)C(=O)NCC(=O)N[C@@H](CO)C(=O)N1CCC[C@H]1C(N)=O)[C@@H](C)O)[C@@H](C)O)[C@@H](C)O)[C@@H](C)O)C(C)C [Compound 0105] | 1.1 | 30.8
3 | CC[C@H](C)[C@H](NC(=O)[C@H](Cc1ccccc1)NC(=O)[C@H](CCC(=O)O)NC(=O)[C@H](CCCNC(=N)N)NC(=O)[C@H](C)NC(=O)[C@H](C)NC(=O)[C@H](CCC(N)=O)NC(=O)[C@H](CCC(=O)O)NC(=O)[C@H](CCC(=O)O)NC(=O)[C@H](CC(C)C)NC(=O)[C@H](Cc1ccc(O)cc1)NC(=O)[C@H](CO)NC(=O)[C@H](CO)NC(=O)[C@@H](NC(=O)[C@H](CC(=O)O)NC(=O)[C@H](CO)NC(=O)[C@@H](NC(=O)[C@H](Cc1ccccc1)NC(=O)[C@@H](NC(=O)CNC(=O)[C@H](CCC(=O)O)NC(=O)C(C)(C)NC(=O)CCc1c[nH]cn1)[C@@H](C)O)[C@@H](C)O)C(C)C)C(=O)N[C@@H](C)C(=O)N[C@@H](Cc1c[nH]c2ccccc12)C(=O)N[C@@H](CC(C)C)C(=O)N[C@H](C(=O)N[C@@H](CCCNC(=N)N)C(=O)NCC(=O)N[C@@H](CCCNC(=N)N)C(=O)N[C@@H](CCCCNC(=O)CCCS(=O)(=O)NC(=O)CCCCCCCCCCCCCCCCc1nnn[nH]1)C(=O)N[C@@H](CCC(=O)O)C(=O)N[C@@H](C)C(=O)N[C@@H](CO)C(=O)N[C@@H](CCC(=O)O)C(=O)N[C@@H](CC(C)C)C(=O)N[C@@H](CO)C(=O)N[C@H](C(=O)N[C@@H](C)C(=O)N[C@@H](C)C(=O)N[C@@H](CC(C)C)C(=O)NCC(=O)N[C@@H](CCCNC(=N)N)C(=O)N[C@@H](CC(C)C)C(=O)N[C@@H](CO)C(=O)N[C@@H](C)C(=O)N[C@@H](CCC(=O)O)C(=O)N[C@@H](CC(C)C)C(=O)N[C@@H](Cc1c[nH]cn1)C(=O)N[C@@H](CCC(=O)O)C(=O)N[C@@H](CC(C)C)C(=O)N[C@@H](C)C(=O)N[C@H](C(=O)N[C@@H](CC(C)C)C(=O)N1CCC[C@H]1C(=O)N[C@@H](CCCNC(=N)N)C(=O)N[C@H](C(=O)N[C@@H](CCC(=O)O)C(=O)N[C@H](C(=O)NCC(=O)N[C@@H](CO)C(=O)NCC(=O)N[C@@H](CO)C(=O)N1CCC[C@H]1C(N)=O)[C@@H](C)O)[C@@H](C)O)[C@@H](C)O)[C@@H](C)O)C(C)C [Compound 0124] | 27.9 | 24.4
